# Reference: BindingDB's records for doi:10.1021/jm00390a019 (1987)
# Molecular target: Gastrin/cholecystokinin type B receptor (Cavia porcellus)
# Assay: Half-maximal inhibition of binding of [125I]gastrin to guinea pig gastric glands
row,SMILES,IC50 [µM]
1,O=C1Nc2ccc(Cl)cc2C(c2ccccc2)=N[C@@H]1COCc1ccccc1,13
2,O=C1Nc2ccccc2C1C[C@H]1N=C(c2ccccc2)c2cc(Cl)ccc2NC1=O (stereo not given in full),> 100
3,CN1C(=O)[C@@H](Cc2c[nH]c3ccccc23)N=C(c2ccccc2)c2ccccc21,21
4,CC(C)C[C@H]1N=C(c2ccccc2)c2cc(Cl)ccc2NC1=O,38
5,CCN1C(=O)[C@@H](Cc2c[nH]c3ccccc23)N=C(c2ccccc2F)c2ccccc21,> 100
6,O=C(O)CN1C(=O)[C@@H](Cc2c[nH]c3ccccc23)N=C(c2ccccc2F)c2ccccc21 [CCK antagonist synthetic 13],5
7,CC(C)CCN1C(=O)[C@@H](Cc2c[nH]c3ccccc23)N=C(c2ccccc2F)c2ccccc21,23
8,O=C(O)CCN1C(=O)[C@@H](Cc2c[nH]c3ccccc23)N=C(c2ccccc2F)c2ccccc21,5.8
9,CC(C)CC(N)C(=O)N1CC(CC2N=C(c3ccccc3)c3ccccc3NC2=O)c2ccccc21 (stereo not given),> 100
10,CN1C(=O)[C@@H](Cc2cn(C)c3ccccc23)N=C(c2ccccc2)c2ccccc21,67
